Read-outs that look alike come from different tables or passages of the source.
Assays:
[1] = molecular target: human TLR8 (Homo sapiens (Human), UniProt Q9NR97); assay: TLR8 inhibition reporter assay (HEK-Blue cells, SEAP reporter, R848 stimulation);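 also: compounds tested from 0.05 nM to 50 µM, 22 h at 37 °C, SEAP measured with HEK-Blue Detection, inhibition relative to agonist plus DMSO versus a known inhibitor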
[2] = molecular target: human TLR7 (Homo sapiens (Human), UniProt Q9NYK1); assay: TLR7 inhibition reporter assay (HEK-Blue cells, SEAP reporter, gardiquimod stimulation); assay type: cell-based; details: HEK-Blue cells overexpressing human TLR7, gardiquimod 7.5 μM
Sequence of human TLR7 (Q9NYK1 27-1049): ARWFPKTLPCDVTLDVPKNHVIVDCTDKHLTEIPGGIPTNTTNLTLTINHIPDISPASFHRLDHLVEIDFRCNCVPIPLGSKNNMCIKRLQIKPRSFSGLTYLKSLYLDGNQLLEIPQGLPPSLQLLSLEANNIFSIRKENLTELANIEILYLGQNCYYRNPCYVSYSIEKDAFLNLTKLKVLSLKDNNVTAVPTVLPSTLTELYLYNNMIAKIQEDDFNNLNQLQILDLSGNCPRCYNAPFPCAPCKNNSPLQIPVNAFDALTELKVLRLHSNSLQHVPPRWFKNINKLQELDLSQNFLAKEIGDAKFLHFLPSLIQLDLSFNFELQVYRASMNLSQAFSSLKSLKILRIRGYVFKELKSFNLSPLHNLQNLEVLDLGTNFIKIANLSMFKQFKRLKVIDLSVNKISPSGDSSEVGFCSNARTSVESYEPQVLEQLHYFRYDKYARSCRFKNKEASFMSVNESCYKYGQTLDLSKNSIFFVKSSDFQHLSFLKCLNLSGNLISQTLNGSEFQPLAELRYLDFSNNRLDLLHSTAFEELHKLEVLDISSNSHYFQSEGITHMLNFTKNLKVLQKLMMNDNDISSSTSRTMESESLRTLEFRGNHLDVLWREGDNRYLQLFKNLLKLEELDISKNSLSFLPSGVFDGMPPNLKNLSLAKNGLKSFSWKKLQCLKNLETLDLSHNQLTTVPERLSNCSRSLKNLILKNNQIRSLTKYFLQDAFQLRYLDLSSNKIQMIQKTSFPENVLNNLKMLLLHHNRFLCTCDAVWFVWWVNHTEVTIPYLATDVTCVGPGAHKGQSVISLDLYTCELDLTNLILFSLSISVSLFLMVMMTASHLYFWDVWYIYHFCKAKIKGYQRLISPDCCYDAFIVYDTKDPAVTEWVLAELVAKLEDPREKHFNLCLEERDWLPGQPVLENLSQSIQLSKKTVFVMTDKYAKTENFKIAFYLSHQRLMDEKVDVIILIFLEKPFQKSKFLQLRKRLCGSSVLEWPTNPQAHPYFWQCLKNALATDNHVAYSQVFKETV

[3] = molecular target: human TLR9 (Homo sapiens (Human), UniProt Q9NR96); assay: TLR9 inhibition reporter assay (HEK-Blue cells, SEAP reporter, ODN2006 stimulation);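 also: compounds tested over 0.05 nM to 50 µM, 22 h incubation, inhibition taken as SEAP signal drop from agonist plus DMSO wells toward a known inhibitor control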
Sequence of human TLR9 (Q9NR96 26-1032): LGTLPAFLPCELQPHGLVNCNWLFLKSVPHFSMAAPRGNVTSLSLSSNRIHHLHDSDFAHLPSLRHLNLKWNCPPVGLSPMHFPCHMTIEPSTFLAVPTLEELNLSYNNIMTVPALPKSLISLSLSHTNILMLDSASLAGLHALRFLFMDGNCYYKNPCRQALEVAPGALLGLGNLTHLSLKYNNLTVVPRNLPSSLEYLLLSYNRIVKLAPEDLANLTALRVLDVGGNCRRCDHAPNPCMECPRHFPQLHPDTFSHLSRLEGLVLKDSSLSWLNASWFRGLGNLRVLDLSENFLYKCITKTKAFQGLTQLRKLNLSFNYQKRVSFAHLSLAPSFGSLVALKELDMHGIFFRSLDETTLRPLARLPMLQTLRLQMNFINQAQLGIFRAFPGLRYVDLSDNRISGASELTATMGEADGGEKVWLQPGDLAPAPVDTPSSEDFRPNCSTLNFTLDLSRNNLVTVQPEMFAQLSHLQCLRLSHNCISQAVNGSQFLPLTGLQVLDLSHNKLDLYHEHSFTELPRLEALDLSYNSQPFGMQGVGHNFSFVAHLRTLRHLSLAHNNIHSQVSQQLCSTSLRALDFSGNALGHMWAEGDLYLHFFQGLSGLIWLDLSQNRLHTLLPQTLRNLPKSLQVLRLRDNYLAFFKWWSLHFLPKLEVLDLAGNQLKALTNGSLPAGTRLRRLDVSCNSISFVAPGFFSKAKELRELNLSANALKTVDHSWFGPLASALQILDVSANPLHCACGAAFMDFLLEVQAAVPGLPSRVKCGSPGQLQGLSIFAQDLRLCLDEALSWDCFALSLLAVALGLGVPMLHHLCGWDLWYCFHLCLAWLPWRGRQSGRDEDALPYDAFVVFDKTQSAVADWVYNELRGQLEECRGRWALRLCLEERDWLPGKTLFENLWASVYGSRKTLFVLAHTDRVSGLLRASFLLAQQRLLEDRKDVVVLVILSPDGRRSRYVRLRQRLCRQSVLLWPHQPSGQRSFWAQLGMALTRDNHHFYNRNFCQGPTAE

[4] = read-out: TLR8 IC50, HEK-Blue cells overexpressing human TLR8, R848 15.9 μM
[5] = read-out: TLR9 IC50, HEK-Blue cells overexpressing human TLR9, ODN2006 5 nM

Sequence of human TLR8 (Q9NR97 27-1041): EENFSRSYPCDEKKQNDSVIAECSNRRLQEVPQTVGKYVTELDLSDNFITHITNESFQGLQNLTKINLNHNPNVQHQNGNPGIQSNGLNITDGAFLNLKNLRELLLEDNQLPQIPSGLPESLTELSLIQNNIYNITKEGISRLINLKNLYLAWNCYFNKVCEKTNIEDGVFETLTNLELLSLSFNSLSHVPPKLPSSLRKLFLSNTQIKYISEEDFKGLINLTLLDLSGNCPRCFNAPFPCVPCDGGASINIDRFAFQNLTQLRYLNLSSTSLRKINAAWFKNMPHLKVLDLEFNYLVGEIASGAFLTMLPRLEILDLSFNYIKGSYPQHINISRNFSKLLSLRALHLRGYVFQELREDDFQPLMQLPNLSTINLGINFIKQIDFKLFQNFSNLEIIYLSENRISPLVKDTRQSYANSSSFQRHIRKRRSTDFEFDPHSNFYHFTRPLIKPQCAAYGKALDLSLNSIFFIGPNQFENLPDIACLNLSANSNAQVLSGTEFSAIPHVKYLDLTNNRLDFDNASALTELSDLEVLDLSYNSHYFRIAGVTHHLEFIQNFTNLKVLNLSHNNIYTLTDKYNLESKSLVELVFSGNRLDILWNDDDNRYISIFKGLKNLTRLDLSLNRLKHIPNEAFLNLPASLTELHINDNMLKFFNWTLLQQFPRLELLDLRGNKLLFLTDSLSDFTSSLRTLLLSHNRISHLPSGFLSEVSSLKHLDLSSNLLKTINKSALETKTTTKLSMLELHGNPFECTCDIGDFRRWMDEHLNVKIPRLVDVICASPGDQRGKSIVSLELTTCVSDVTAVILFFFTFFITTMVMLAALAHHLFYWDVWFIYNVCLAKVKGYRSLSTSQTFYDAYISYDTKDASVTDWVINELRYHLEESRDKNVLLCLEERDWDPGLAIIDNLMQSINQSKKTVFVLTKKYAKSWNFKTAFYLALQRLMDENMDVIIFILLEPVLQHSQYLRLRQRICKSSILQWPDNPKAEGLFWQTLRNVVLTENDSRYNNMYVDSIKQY

SMILES: Cc1cc(-c2[nH]c3ccc(C4CCN(C5CCNC(C)C5)CC4)cc3c2C(C)C)ccn1 (stereo not drawn) [Example 708, 3-isopropyl-5-(2′-methyl-[1,4′-bipiperidin]-4-yl)-2-(2-methylpyridin-4-yl)-1H-indole]
- IC50 [1, 4]: 6.3 nM
- IC50 [2]: 8.1 nM
- IC50 [3, 5]: 492 nM

SMILES: Cc1cc(-c2[nH]c3ccc(C4CCN(C(=O)CCN(C)C)CC4)cc3c2C(C)C)cc(C)n1 [Example 97, 3-(dimethylamino)-1-(4-(2-(2,6-dimethylpyridin-4-yl)-3-isopropyl-1H-indol-5-yl)piperidin-1-yl)propan-1-one]
- IC50 [1, 4]: 5.9 nM
- IC50 [2]: 1.3 nM
- IC50 [3, 5]: 399 nM

SMILES: Cc1cc(-c2[nH]c3ccc(C4CCN(C(=O)CN(C)CC(F)F)CC4)cc3c2C(C)C)cc(C)n1 [Example 422, 2-((2,2-difluoroethyl)(methyl)amino)-1-(4-(2-(2,6-dimethylpyridin-4-yl)-3-isopropyl-1H-indol-5-yl)piperidin-1-yl) ethan-1-one]
- IC50 [1, 4]: 73.4 nM
- IC50 [2]: 5.5 nM
- IC50 [3, 5]: 41300 nM

SMILES: COc1cc(OC)nc(CN2CCC(c3ccc4[nH]c(-c5cc(C)nc(C)c5)c(C(C)C)c4c3)CC2)n1 [Example 447, 5-(1-((4,6-dimethoxypyrimidin-2-yl)methyl)piperidin-4-yl)-2-(2,6-dimethylpyridin-4-yl)-3-isopropyl-1H-indole]
- IC50 [1, 4]: 7 nM
- IC50 [2]: 5.4 nM
- IC50 [3, 5]: 446 nM

SMILES: CCc1c(-c2cc(C)nc(C)c2)[nH]c2ccc(C3CCN(C(=O)C4CC(=O)N(C)C4)CC3)cc12 (stereo not drawn) [Example 530, 4-(4-(2-(2,6-dimethylpyridin-4-yl)-3-ethyl-1H-indol-5-yl)piperidine-1-carbonyl)-1-methylpyrrolidin-2-one]
- IC50 [1, 4]: 398 nM
- IC50 [2]: 52.2 nM
- IC50 [3, 5]: 5270 nM

SMILES: CCc1c(-c2ccnc(C)c2)[nH]c2ccc(C3CCN(C(=O)C4CNC4)CC3)cc12 [Example 630, azetidin-3-yl (4-(3-ethyl-2-(2-methylpyridin-4-yl)-1H-indol-5-yl)piperidin-1-yl)methanone]
- IC50 [1, 4]: 40.2 nM
- IC50 [2]: 70.4 nM
- IC50 [3, 5]: 333 nM

SMILES: Cc1cc(-c2[nH]c3ccc(C4CCNCC4O)cc3c2C(C)C)cc(C)n1 (single isomer, unassigned) [Example 488A, 4-(2-(2,6-dimethylpyridin-4-yl)-3-isopropyl-1H-indol-5-yl)piperidin-3-ol]
- IC50 ([1]; TLR8 IC50, HEK-Blue cells overexpressing human TLR8, R848 15.9 μM): 21 nM
- IC50 [2]: 2.7 nM
- IC50 ([3]; TLR9 IC50, HEK-Blue cells overexpressing human TLR9, ODN2006 5 nM): 240 nM

SMILES: Cc1cc(-c2[nH]c3ccc(C4CCN(C(=O)CC(F)(F)F)CC4)cc3c2C(C)C)ccn1 [Example 600, 3,3,3-trifluoro-1-(4-(3-isopropyl-2-(2-methylpyridin-4-yl)-1H-indol-5-yl)piperidin-1-yl)propan-1-one]
- IC50 [1, 4]: 269 nM
- IC50 [2]: 120 nM
- IC50 [3, 5]: > 50000 nM

SMILES: CNCCN1CCC(c2ccc3[nH]c(-c4ccnc(C(=O)OC)c4)c(C)c3c2)CC1 [Example 752, methyl 4-(3-methyl-5-(1-(2-(methylamino)ethyl)piperidin-4-yl)-1H-indol-2-yl) picolinate]
- IC50 [1, 4]: 114 nM
- IC50 [2]: 231 nM
- IC50 [3, 5]: 199 nM

SMILES: Cc1cc(-c2[nH]c3ccc(C4CCN(Cc5cn(C)nn5)CC4)cc3c2C(C)C)cc(C)n1 [Example 442, 2-(2,6-dimethylpyridin-4-yl)-3-isopropyl-5-(1-((1-methyl-1H-1,2,3-triazol-4-yl)methyl)piperidin-4-yl)-1H-indole]
- IC50 [1, 4]: 6.7 nM
- IC50 [2]: 5.3 nM
- IC50 [3, 5]: 1190 nM

SMILES: Cc1cc(-c2[nH]c3ccc(C4CCNCC4)cc3c2C(C)C)c(Br)c(C)n1 [Example 40, 2-(3-bromo-2,6-dimethylpyridin-4-yl)-3-isopropyl-5-(piperidin-4-yl)-1H-indole]
- IC50 [1, 4]: 4.1 nM
- IC50 [2]: 16.5 nM
- IC50 [3, 5]: 1480 nM

SMILES: Cc1cc(-c2[nH]c3ccc(C4CCN(C(=O)CCCN(C)C)CC4)cc3c2C(C)C)cc(C)n1 [Example 111, 4-(dimethylamino)-1-(4-(2-(2,6-dimethylpyridin-4-yl)-3-isopropyl-1H-indol-5-yl)piperidin-1-yl)butan-1-one]
- IC50 [1, 4]: 255 nM
- IC50 [2]: 75.9 nM
- IC50 [3, 5]: 12900 nM

SMILES: CCCCN(CCO)CC(=O)N1CCC(c2ccc3[nH]c(-c4cc(C)nc(C)c4)c(C(C)C)c3c2)CC1 [Example 414, 2-(butyl(2-hydroxyethyl)amino)-1-(4-(2-(2,6-dimethylpyridin-4-yl)-3-isopropyl-1H-indol-5-yl)piperidin-1-yl)ethan-1-one]
- IC50 [1, 4]: 16.8 nM
- IC50 [2]: 2.4 nM
- IC50 [3, 5]: 924 nM

SMILES: Cc1cc(-c2[nH]c3ccc(C4CCN(C5CCOCC5)CC4)cc3c2C(C)C)c(F)cn1 [Example 715, 2-(5-fluoro-2-methylpyridin-4-yl)-3-isopropyl-5-(1-(tetrahydro-2H-pyran-4-yl)piperidin-4-yl)-1H-indole]
- IC50 [1, 4]: 3.8 nM
- IC50 [2]: 20.7 nM
- IC50 [3, 5]: 2990 nM

Reference: patent US10660877B2 (BRISTOL-MYERS SQUIBB COMPANY, priority 2016, dated 2020)
